Values of other authors in patent publication US8242056B2, “Agriculture actives delivery composition comprising boron and persulfate ion-crosslinked polyvinyl alcohol microcapsules and method of use thereof” (Appleton Papers Inc., priority 2008, dated 2012).
Like-named read-outs stand apart in the source and are kept apart here.

Columns and labels:
[1] = half ionized and half un-ionized at its pKa

## COc1cc(OC)nc(NC(=O)NS(=O)(=O)c2ncccc2C(=O)N(C)C)n1 [nicosulfuron]
[1]
  pKa: 4.3
pH5
  Water solubility: 360 ppm
pH 6.9
  Water solubility: 12,200 ppm
pH 8.8
  Water solubility: 29,200 ppm
